{
  "source": "patent US20240358693A1",
  "about": "“METHODS OF TREATING PAIN” (Aisa Pharma, Inc., priority 2023, published 2024)",
  "tested_on": "participants with SSc-RP",
  "assay": "Scleroderma Health Assessment Questionnaire (SHAQ): disability indices and visual analog scales",
  "format": "in vivo, human",
  "settings": "Day 12 vs baseline; PP Population, Part A; SSc patients; sensitivity analysis",
  "description": "The standard, validated, patient reported outcome measures tool for SSc patients, the Scleroderma Health Assessment Questionnaire (SHAQ), will be used to assess the participant qualify of life. Details are attached in the Appendix. The participant quality of life will be scored, and a disability index calculated for each questionnaire completed by the patient at Screening and each in-clinic visit. The absolute change in participant quality of life from baseline to the end of each dosing period will be calculated similar to frequency data as before.\nThe SHAQ includes a Raynaud's VAS, which will be reported at screening and each in-clinic visit. The absolute change in Raynaud-VAS, assessed by the participants response to the SHAQ question ‘In the past 7 days, how much have your Raynaud's interfered with your daily activities?’ at baseline and the end of each dosing period will be calculated similar to frequency data as before.\nThe SHAQ is used to calculate a Disability Index to assess the participant qualify of life. The eight categories assessed by the Disability Index are 1) dressing and grooming, 2) arising, 3) eating, 4) walking, 5) hygiene, 6) reach, 7) grip, and 8) common daily activities. For each of these categories, patients report the amount of difficulty they have in performing two or three specific activities.\nThere are four possible responses for the Disability Index questions: • Without any difficulty=0 • With some difficulty=1 • With much difficulty=2 • Unable to do=3. • The highest score reported by the patient for any component question of the eight categories determines the score for that category. • If a component question is left blank or the response is too ambiguous to assign a score, then the score for that category is determined by the remaining completed question(s). • If all component questions are blank or if more than one answer is given, then follow up with the respondent is required. • If the respondent's mark is between the response columns, then move it to the closest one. If it's directly between the two, move it to the higher one.\nEach of the disability items on the SHAQ has a companion aids/devices variable that is used to record what type(s) of assistance, if any, the participant uses for his/her usual activities. These variables (see below) are coded as follows: • 0=No assistance is needed. • 1=A special device is used by the patient in his/her usual activities. • 2=The patient usually needs help from another person. • 3=The patient usually needs BOTH a special device AND help from another person.\nThe scoring variables and scoring rules permit the computation of two disability indices, the Standard Disability Index and the Alternative Disability Index.\nThis question results in a new set of category scores that are computed by adjusting the score for each category, if necessary, based on the patient's use of an aid or device or assistance for that category. If either devices and/or help from another person are checked for a category, the score is set to “2”, unless the score is already “3” (i.e., scores of “0” or “1” are increased to “2”). For example, if the highest score for the dressing category is “1”, and the patient says they use a device for dressing, the computed category score would be “2”. The sum of the computed categories scores is then calculated and divided by the number of categories answered. This gives a score in the 0 to 3 range.\nThe aid and device variables are not used to calculate the alternative disability index; it is calculated by adding the scores for each of the categories and dividing by the number of categories answered. This gives a score in the 0 to 3 range.\nThe standard, validated, patient reported outcome measures tool for SSc patients, the SHAQ, was collected at the time points specified in the study schedules (FIG. 2 and FIGS. 4A and 4B) to assess the participant's quality of life. The SHAQ included a Raynaud's VAS that will also be reported separately.",
  "data": [
    {"smiles": "COCCOC(=O)C1=C(C)NC(C)=C(C(=O)OC/C=C/c2ccccc2)C1c1cccc([N+](=O)[O-])c1", "note": "(stereo not drawn) [Any Cilnidipine]", "values": [
      {"measurement": "SHAQ Alternative Disability Index, Change from Baseline, Max", "result": 0.38},
      {"measurement": "SHAQ Alternative Disability Index, Change from Baseline, Mean", "result": "−0.006"},
      {"measurement": "SHAQ Alternative Disability Index, Change from Baseline, Median", "result": 0.000},
      {"measurement": "SHAQ Alternative Disability Index, Change from Baseline, Min", "result": "−0.29"},
      {"measurement": "SHAQ Alternative Disability Index, Change from Baseline, Q1", "result": "−0.125"},
      {"measurement": "SHAQ Alternative Disability Index, Change from Baseline, Q3", "result": 0.000},
      {"measurement": "SHAQ Alternative Disability Index, Percent Change from Baseline, Max", "result": 300.0, "unit": "%"},
      {"measurement": "SHAQ Alternative Disability Index, Percent Change from Baseline, Mean", "result": 21.32, "unit": "%"},
      {"measurement": "SHAQ Alternative Disability Index, Percent Change from Baseline, Median", "result": "−10.00", "unit": "%"},
      {"measurement": "SHAQ Alternative Disability Index, Percent Change from Baseline, Min", "result": "−100.0", "unit": "%"},
      {"measurement": "SHAQ Alternative Disability Index, Percent Change from Baseline, Q1", "result": "−28.57", "unit": "%"},
      {"measurement": "SHAQ Alternative Disability Index, Percent Change from Baseline, Q3", "result": 42.86, "unit": "%"},
      {"measurement": "SHAQ Visual Analogue Scale - Finger Ulcers, Change from Baseline, Max", "result": 0.40},
      {"measurement": "SHAQ Visual Analogue Scale - Finger Ulcers, Change from Baseline, Mean", "result": "−0.540"},
      {"measurement": "SHAQ Visual Analogue Scale - Finger Ulcers, Change from Baseline, Median", "result": "−0.100"},
      {"measurement": "SHAQ Visual Analogue Scale - Finger Ulcers, Change from Baseline, Min", "result": "−3.20"},
      {"measurement": "SHAQ Visual Analogue Scale - Finger Ulcers, Change from Baseline, Q1", "result": "−0.700"},
      {"measurement": "SHAQ Visual Analogue Scale - Finger Ulcers, Change from Baseline, Q3", "result": 0.000},
      {"measurement": "SHAQ Visual Analogue Scale - Finger Ulcers, Percent Change from Baseline, Max", "result": 133.3, "unit": "%"},
      {"measurement": "SHAQ Visual Analogue Scale - Finger Ulcers, Percent Change from Baseline, Mean", "result": "−33.91", "unit": "%"},
      {"measurement": "SHAQ Visual Analogue Scale - Finger Ulcers, Percent Change from Baseline, Median", "result": "−36.11", "unit": "%"},
      {"measurement": "SHAQ Visual Analogue Scale - Finger Ulcers, Percent Change from Baseline, Min", "result": "−100.0", "unit": "%"},
      {"measurement": "SHAQ Visual Analogue Scale - Finger Ulcers, Percent Change from Baseline, Q1", "result": "−100.00", "unit": "%"},
      {"measurement": "SHAQ Visual Analogue Scale - Finger Ulcers, Percent Change from Baseline, Q3", "result": "−12.50", "unit": "%"},
      {"measurement": "SHAQ Visual Analogue Scale - Intestinal Problems, Change from Baseline, Max", "result": 2.90},
      {"measurement": "SHAQ Visual Analogue Scale - Intestinal Problems, Change from Baseline, Mean", "result": "−0.556"},
      {"measurement": "SHAQ Visual Analogue Scale - Intestinal Problems, Change from Baseline, Median", "result": "−0.100"},
      {"measurement": "SHAQ Visual Analogue Scale - Intestinal Problems, Change from Baseline, Min", "result": "−4.40"},
      {"measurement": "SHAQ Visual Analogue Scale - Intestinal Problems, Change from Baseline, Q1", "result": "−1.100"},
      {"measurement": "SHAQ Visual Analogue Scale - Intestinal Problems, Change from Baseline, Q3", "result": 0.200},
      {"measurement": "SHAQ Visual Analogue Scale - Intestinal Problems, Percent Change from Baseline, Max", "result": 181.3, "unit": "%"},
      {"measurement": "SHAQ Visual Analogue Scale - Intestinal Problems, Percent Change from Baseline, Mean", "result": "−18.65", "unit": "%"},
      {"measurement": "SHAQ Visual Analogue Scale - Intestinal Problems, Percent Change from Baseline, Median", "result": "−54.13", "unit": "%"},
      {"measurement": "SHAQ Visual Analogue Scale - Intestinal Problems, Percent Change from Baseline, Min", "result": "−100.0", "unit": "%"},
      {"measurement": "SHAQ Visual Analogue Scale - Intestinal Problems, Percent Change from Baseline, Q1", "result": "−100.00", "unit": "%"},
      {"measurement": "SHAQ Visual Analogue Scale - Intestinal Problems, Percent Change from Baseline, Q3", "result": 40.00, "unit": "%"},
      {"measurement": "SHAQ Visual Analogue Scale - Overall Disease Severity, Change from Baseline, Max", "result": 1.90},
      {"measurement": "SHAQ Visual Analogue Scale - Overall Disease Severity, Change from Baseline, Mean", "result": "−0.991"},
      {"measurement": "SHAQ Visual Analogue Scale - Overall Disease Severity, Change from Baseline, Median", "result": "−1.100"},
      {"measurement": "SHAQ Visual Analogue Scale - Overall Disease Severity, Change from Baseline, Min", "result": "−3.10"},
      {"measurement": "SHAQ Visual Analogue Scale - Overall Disease Severity, Change from Baseline, Q1", "result": "−1.650"},
      {"measurement": "SHAQ Visual Analogue Scale - Overall Disease Severity, Change from Baseline, Q3", "result": "−0.400"},
      {"measurement": "SHAQ Visual Analogue Scale - Overall Disease Severity, Percent Change from Baseline, Max", "result": 100.0, "unit": "%"},
      {"measurement": "SHAQ Visual Analogue Scale - Overall Disease Severity, Percent Change from Baseline, Mean", "result": "−36.33", "unit": "%"},
      {"measurement": "SHAQ Visual Analogue Scale - Overall Disease Severity, Percent Change from Baseline, Median", "result": "−42.89", "unit": "%"},
      {"measurement": "SHAQ Visual Analogue Scale - Overall Disease Severity, Percent Change from Baseline, Min", "result": "−100.0", "unit": "%"},
      {"measurement": "SHAQ Visual Analogue Scale - Overall Disease Severity, Percent Change from Baseline, Q1", "result": "−58.95", "unit": "%"},
      {"measurement": "SHAQ Visual Analogue Scale - Overall Disease Severity, Percent Change from Baseline, Q3", "result": "−24.92", "unit": "%"},
      {"measurement": "SHAQ Visual Analogue Scale - Pain, Change from Baseline, Max", "result": 0.90},
      {"measurement": "SHAQ Visual Analogue Scale - Pain, Change from Baseline, Mean", "result": "−0.575"},
      {"measurement": "SHAQ Visual Analogue Scale - Pain, Change from Baseline, Median", "result": "−0.600"},
      {"measurement": "SHAQ Visual Analogue Scale - Pain, Change from Baseline, Min", "result": "−2.80"},
      {"measurement": "SHAQ Visual Analogue Scale - Pain, Change from Baseline, Q1", "result": "−1.200"},
      {"measurement": "SHAQ Visual Analogue Scale - Pain, Change from Baseline, Q3", "result": 0.150},
      {"measurement": "SHAQ Visual Analogue Scale - Pain, Percent Change from Baseline, Max", "result": 20.5, "unit": "%"},
      {"measurement": "SHAQ Visual Analogue Scale - Pain, Percent Change from Baseline, Mean", "result": "−22.77", "unit": "%"},
      {"measurement": "SHAQ Visual Analogue Scale - Pain, Percent Change from Baseline, Median", "result": "−22.58", "unit": "%"},
      {"measurement": "SHAQ Visual Analogue Scale - Pain, Percent Change from Baseline, Min", "result": "−72.2", "unit": "%"},
      {"measurement": "SHAQ Visual Analogue Scale - Pain, Percent Change from Baseline, Q1", "result": "−53.33", "unit": "%"},
      {"measurement": "SHAQ Visual Analogue Scale - Pain, Percent Change from Baseline, Q3", "result": 11.54, "unit": "%"},
      {"measurement": "SHAQ Visual Analogue Scale - Raynaud’s, Change from Baseline, Max", "result": 1.50},
      {"measurement": "SHAQ Visual Analogue Scale - Raynaud’s, Change from Baseline, Mean", "result": "−0.696"},
      {"measurement": "SHAQ Visual Analogue Scale - Raynaud’s, Change from Baseline, Median", "result": "−0.300"}
    ]}
  ]
}
